Measured values reported in ChEMBL document CHEMBL5120906, “Oxalierpenes A and B, Unusual Indole-Diterpenoid Derivatives with Antiviral Activity from a Marine-Derived Strain of the Fungus Penicillium oxalicum” (J Nat Prod, 2022).

Legend:
[1] = Cytotoxicity against human HEp-2 cells assessed as reduction in cell viability; format: toxicity, cell-based
[2] = Cytotoxicity against dog MDCK cells assessed as reduction in cell viability; format: toxicity, cell-based, Canis lupus familiaris
[3] = test system: Respiratory syncytial virus; assay: Antiviral activity against Respiratory syncytial virus infected in human HEp-2 cells assessed as inhibition of virus-induced cytopathic effect by CPE inhibition assay; format: functional, organism-based
Influenza A virus = assay: Antiviral activity against Influenza A virus A/WSN/33(H1N1) infected in dog MDCK cells assessed as inhibition of virus-induced cytopathic effect by CPE inhibition assay; format: functional, organism-based
[4] = Therapeutic index, ratio of CC50 for Cytotoxicity against dog MDCK cells to IC50 for Antiviral activity against Influenza A virus A/WSN/33(H1N1) infected in dog MDCK cells; format: toxicity, cell-based; settings: read-out: Ratio CC50/IC50
[5] = Therapeutic index, ratio of CC50 for Cytotoxicity against human HEp-2 cells to IC50 for Antiviral activity against Respiratory syncytial virus infected in human HEp-2 cells; format: toxicity, cell-based; settings: read-out: Ratio CC50/IC50

Row | Structure (SMILES) | CC50 [1] | CC50 [2] | IC50 [3] | IC50 (Influenza A virus) | selectivity ratio [4] | selectivity ratio [5]
1 | CC1(C)C=C2C(=Cc3cc4c5c([nH]c4cc32)[C@@]2(C)[C@@H](CC[C@@]34O[C@@]6(O)[C@H](O)C(C)(C)O[C@H]6[C@@H]3C(=O)CC[C@]24C)C5)C(C)(C)O1 | 15 µM | 13 µM | 2.8 µM | 3.7 µM | 3.5 | 5.5
2 | NC(=O)c1nc(F)c[nH]c1=O [FAVIPIRAVIR] | – | > 1000 µM | – | – | > 28 | –
3 | CC1(C)C=C2C(=Cc3cc4c5c([nH]c4cc32)[C@@]2(C)[C@@H](CCC3=C([C@@H]4OC(C)(C)[C@@H](O)C4=O)C(=O)CC[C@@]32C)C5)C(C)(C)O1 | 31 µM | 27 µM | 6.7 µM | 9.4 µM | 2.8 | 4.6
4 | NC(=O)c1ncn([C@@H]2O[C@H](CO)[C@@H](O)[C@H]2O)n1 [RIBAVIRIN] | > 1000 µM | – | 19 µM | – | – | > 54
